No end group written: not given here.
Experiments:
bystander B cells (TLR2) = assay: TLR2 ligand-depoted T cells co-cultured with bystander B cells, activation markers by flow cytometry; type: cell-based, mouse
Protocol: (§1) A) Splenic immune cells were depoted with 10 μg/ml of Pam2CSK4 for 1 h. Depoted cells were resting for up to 1 h versus nondepoted cells with addition of 100 ng/ml of soluble Pam2CSK4. Phosphorylated p38 was measured compared to negative controls by western blotting. n=2 independent experiments. Data depict m±s.d. B) Isolated T-cells were depoted with TLR2 ligand and MFI of activation markers, MHCII and CD69, on bystander B-cells were measured after 2-day culture by flow cytometry and normalized to unstimulated B-cells (fold MFI). n=5-6 independent experiments, one-way ANOVA with Kruskal-Wallis test. Data depict m±s.d. C) Splenocytes were cultured in 2 μg/ml of Concanavalin A and 10 ng/ml of IL-7 for 2 days, and isolated T-cells were then TLR2 ligand-depoted for 1 hour. Depoted T-cells were then resting for 0 h, 3 h, 24 h, or 48 h, before T-cells were chemically fixed and co-cultured for 2 days with CD45.1^+ bystander B-cells. Bystander B-cells were used as a reporter to determine TLR2 ligand surface persistence on depoted T-cells by their fold MFI of MHCII and CD69. n=5 independent experiments. Data depict m±s.d.
A) Pam2CSK4-biotin at indicated concentrations was depoted into CD3+CD8+ or CD3+CD8− T-cells and stained with streptavidin (SAV) PE as determined by flow cytometry. B) Paracrine signaling of resting vs Concanavalin A/IL-7-activated TLR2 ligand-depoted CD8+ T-cells. Activated CD8+ T-cells were isolated from splenocytes cultured in 2 μg/ml of Concanavalin A and 10 ng/ml of IL-7 for 2 days. TLR2 ligand was depoted and processed by CD8+ T-cells for 0 h, 3 h, 6 h, 24 h, or 48 h, before T-cells were chemically fixed and cultured for 2 days with bystander B-cells to determine fold MFI intensity of MHC II, CD69, and CD86 (C).
CD45.1+ B cells were depoted with lipo-CpG, CpG, or nothing. These were cultured alone or 1:1 mixed with bystander (no depot) CD45.1− B cells. B cell activation was shown as fold intensity CD86 measured by flow cytometry after 3 d. B) CD8+ T cells were depoted with Pam2CSK4 or nothing, and then co-cultured 1:1 with bystander CD45.1+ B cells for 3 d. B cell activation was measured by CD86 and compared to a continuous exposure Pam2CSK4 control. […]
After determining that depoting was a robust process, the function of depoted Pam2CSK4 to activate neighboring immune cells was tested. Depoted T cells were co-cultured with responders (B cells) and the expression of activation markers was determined after 2 days of co-culture at a 1:1 T cell:B cell ratio.
In FIG. 11, Pan T cells were isolated from mice and either left alone (blue, red) or depoted with Pam2CSK4 for 1 h (green). […] Expression levels of activation markers were analyzed by flow after 2 days and fluorescence intensity normalized to B cells activated with polyclonal stimulus. […]

[1] = test system: CD8+ T cells with B16F10 tumor cells; assay: Proliferation of depoted CD8+ T cells with αCD3/28 beads in the presence of immunosuppressive tumor cells; type: cell-based, murine; settings: 3 days coculture with αCD3/28 beads
Protocol: A) Flow cytometry histograms showing CFSE dilution of CD8^+ T-cells after 3-day stimulation with ratios of 1:1 αCD3/CD28 beads and 1:5 B16F10 tumor cells (blue text). T-Cells were cultured with 10 μg/ml of soluble Pam2CSK4 or Pam3CSK4 either alone or in combination with 5 μM of soluble lipo-CpG (solid fill), or depoted with the same respective combinations (tinted fill). B) Quantification of percent of CD8^+ T-cells that divided >5 times compared to undivided CD8^+ T-cells as measured by CF SE dilution from flow cytometry. C) IL-2 production from CD8^+ T-cell supernatents after 3 days of proliferation. n=1 independent experiment.
The proliferative capacity of depoted CD8+ T cells was evaluated after 3 days of coculture with αCD3/28 beads in the presence or absence of immunosuppressive tumor cells.

T-cells = assay: Insertion (depoting) of TLR2 ligands into cell membranes and intracellular localisation; type: cell-based, murine
Protocol: A) Structure of synthesized lipo-ligand, which are diacyl 18-carbon tails conjugated to: unmethylated CpG oligonucleotide ([…]) (SEQ ID NO: 1), or a poly(ethylene) glycol (PEG) linker plus a melanoma antigen, GP10025-33 (KVPRNQDWL) (SEQ ID NO: 2). B) Schematic of lipo-ligand depoting into cell membrane surface. C-D, CD4+ and CD8+ T-cells are identified by flow cytometry and median fluorescence intensity (MFI) of labeled ligand is determined on each cell subset as a function of time and ligand concentration. C) Fluoroscein (FAM)-labeled lipo-CpG, a TLR9 ligand, depoted into murine splenic immune cells. D) Pam2CSK4, a TLR2 ligand, depoted into murine splenic immune cells. E) MFI of lipo-GP100 is determined by flow cytometry as a function of cell density and depot volume. F-G, Isolated T-cells are depoted by varying depot time or ligand concentration, and quantified as average number of ligand per T-cell by enzyme-linked immunosorbant assay (ELISA) F) Lipo-CpG depoted into isolated T-cells. G) Pam2CSK4 and Pam3CSK4, another TLR2 ligand, respectively depoted into isolated T-cells. H) Average number of each respective ligand per splenic immune cell after 1 hour depot. n=3-5 independent experiments. Data depict m±s.d.
as §1, with “Depoted T-cells were then resting for 0 h, 3 h, 24 h, or 48 h, before T-cells were chemically fixed and co-cultured for 2 days with CD45.1^+ bystander B-cells. Bystander B-cells were used as a reporter to determine TLR2 ligand surface persistence on depoted T-cells by their fold MFI of MHCII and CD69. n=5 independent experiments. Data depict m±s.d.” left out

CD8+ T cells = assay: Proliferation of depoted T cells after 3 d stimulation with 1:1 anti-CD3/28 beads (CFSE dilution); type: cell-based, murine; settings: 1:1 beads
Protocol: T-Cells were cultured with 5 μM of soluble lipo-CpG or depoted with lipo-CpG, and CFSE dilution was measured by flow cytometry. B) Quantification of division index of CD4^+ T-cells as measured by CFSE dilution from flow cytometry. n=3 independent experiments, one-way ANOVA with Krustal-Wallis test. *p<0.05 between the unstim condition.
CD45.1+ B cells were depoted with lipo-CpG, CpG, or nothing. These were cultured alone or 1:1 mixed with bystander (no depot) CD45.1− B cells. B cell activation was shown as fold intensity CD86 measured by flow cytometry after 3 d. B) CD8+ T cells were depoted with Pam2CSK4 or nothing, and then co-cultured 1:1 with bystander CD45.1+ B cells for 3 d. B cell activation was measured by CD86 and compared to a continuous exposure Pam2CSK4 control. C) Representative histograms showing CFSE dilution (proliferation) of CD8+ T cells after 3 d stimulation with 1:1 anti-CD3/28 beads. Where indicated, cells were depoted or cultured with continuous soluble lipo-CpG (left) or Pam2CSK4 (right). Bars=median, whiskers=range; n=3.
B cells depoted with lipo-CpG had sustained activation up to 3 d (FIG. 10 A). […] The ability of a surface sensed lipo-Av to activate neighboring cells was also tested, using Pam2CSK4 which engages surface TLR2.

[2] = test system: resting memory CD4+ T cells; settings: cited from earlier work
cognate CD8+ T-cells = assay: Antigen presentation by lipo-GP100-depoted B-cells to cognate CD8+ T-cells (T-cell proliferation, CFSE dilution); type: cell-based, murine
Protocol: A) Activated B-cells were isolated from splenocytes and cultured with 1 μg/ml TLR7 ligand R848 and αIgM antibody for 2 days. Resting versus activated B-cells were depoted with lipo-GP100-FAM for 1 hour. Lipo-GP100-FAM and forward scatter fold increase was measured by flow cytometry. B) LipoGP100-depoted resting B-cells presented to and proliferated cognate CD8^+ T-cells at 33 μM of 1 h depoted lipo-GP100 after 3-day culture as measured by CFSE dilution with flow cytometry. Indicated values are percent CD8^+ T-cells that divided at least once. C) BMDCs were cultured with 20 ng/ml of GM-CSF for 7 days before harvested and either depoted with 33 μM of lipo-GP100 or pulsed with 33 μM of short GP100 (KVPRNQDWL) (SEQ ID NO: 2) peptide, along with resting B-cells. These modified APCs were co-cultured with pmel-1 GP100-specific CD8^+ T-cells for 3 days to determine pmel-1 T-cell proliferation by flow cytometry. n=1 independent experiment.
Antigen processing in APC B-cells by A) endocytosis, B) direct binding affinity on APC surface, or C) depoting. 33 uM of indicated GP100 antigen is conferred to APC B-cells for 1 h, then processed by B-cells in aforementioned antigen processing mechanisms for 0 h, 3 h, or 16 h, before B-cells are chemically fixed and cultured with cognate CD8^+ T-cells for 3 days to determine T-cell proliferation. n=1 independent experiment.
An diacyl (C18) lipid-conjugated ligands (lipo-ligands) was engineered that can be depoted into cell membranes in a time- and concentration-dependent fashion for precise and robust delivery up to 241.5±9.6 (mean±SD) fold increase compared to nondepoted cells. […] B) Representative histograms of fluorescein-labeled (FAM-labeled) lipo-GP100 fluorescence on B-cell surface as functions of depot time and lipo-GP100 concentration measured by flow cytometry. Median fluorescence intensity (MFI) of lipo-GP100 FAM fold increase on B-cells from non-depoted B-cells by flow cytometry. […]

Substance | B cell activation by depoted CD8+ T cells relative to continuous exposure control (bystander B cells (TLR2); 1:1 co-culture 3 d, CD86) | duration of trans signaling and activation of B cells by depoted CD8+ T cells (bystander B cells (TLR2); 1:1 co-culture, CD86) [days] | activation of neighboring responder B cells by depoted T cells relative to soluble ligand (bystander B cells (TLR2); 2 days co-culture, 1:1 T cell:B cell ratio, depoted 1 h) | persistence of bystander-activating activity of depoted T cells (bystander B cells (TLR2); data not shown) | proliferative capacity of depoted T cells in the presence of tumor cells [1] | insertion into cell membranes (T-cells) | intracellular localisation by microscopy (T-cells; 24 h post-depoting) | effect of depoting on CD8+ T cell proliferation in response to αCD3/28 beads (CD8+ T cells) | HIV latency reactivation ("shock") activity [2] | manner of antigen presentation by APC B-cells to cognate CD8+ T-cells (cognate CD8+ T-cells; 33 uM antigen 1 h, processed 0 h, 3 h or 16 h, fixed, 3-day culture) | B-cells as APCs versus BMDCs presenting antigen, MHCI-restricted (cognate CD8+ T-cells; 33 μM depoted, 3-day co-culture with pmel-1 CD8+ T-cells) | duration of antigen presentation from B-cells to cognate CD8+ T-cells (cognate CD8+ T-cells; GP100 25-33 antigen delivered by depoting) [h]
Pam2CSK4 | nearly matching continuously exposed control | 3 | nearly equivalent to high doses of Pam2CSK4 in solution | persists for multiple days | recovered proliferative capacity in the presence of tumor cells | can be rapidly inserted into cell membranes | colocalizing with early endosome antigen 1 (EEA1) | did not | – | – | – | –
Pam3CSK4 | – | – | – | – | recovered proliferative capacity in the presence of tumor cells | can be rapidly inserted into cell membranes | – | – | effective “shock” agent | – | – | –
lipo-GP100: diacyl 18-carbon tails conjugated to a PEG linker plus melanoma antigen GP10025-33 (KVPRNQDWL) (SEQ ID NO: 2) (also: diacyl C18 lipid tails via PEG linker, site not given here) | – | – | – | – | – | – | – | – | – | delayed and prolonged manner | comparable to bone marrow derived cells (BMDCs) | > 16
